Several values for one entry are separate records, joined by “and”; a condition that tells them apart may be missing. Equal entries are not always repeated. Where two headings read alike, the source gives them in different places.
Assays:
[1] = system: Flu B; type: cell-based; conditions: MDCK
[2] = system: Dengue; assay: antiviral assay, Dengue in Vero; type: cell-based
[3] = system: Flu A (H3N2); assay: microbe, parasite or virus in culture; type: cell-based; conditions: Flu A (H3N2), MDCK, read-out: EC50
[4] = system: Flu A (H1N1); assay: microbe, parasite or virus in culture; type: cell-based; conditions: MDCK, read-out: EC50
[5] = system: Vaccinia; assay: microbe, parasite or virus in culture; type: cell-based, vaccinia virus; conditions: VV; CPE; HFF Cells (Table 3); read-out: EC50
[6] = system: RVF; type: cell-based
[7] = system: Tacaribe; type: cell-based; conditions: Vero 76
[8] = system: VEE; type: cell-based
[9] = system: Flu A (H5N1); assay: microbe, parasite or virus in culture; type: cell-based; conditions: Flu A (H5N1), MDCK, read-out: EC50
[10] = system: Cowpox; assay: microbe, parasite or virus in culture; type: cell-based, cowpox virus; conditions: Cowpox; CPE; HFF Cells (Table 3); read-out: EC50
[11] = system: SARS; assay: organism not typed; type: cell-based; conditions: SARS, Vero 76, read-out: EC50
[12] = system: Hepatitis B Virus; assay: in vitro anti-HBV activity, VIR (extracellular virion HBV DNA); type: cell-based; conditions: HBV; VIR; Huh7 ET (Table 3)
Procedure: In the first biological experiment, a number of 7-deazaneplanocin compounds were tested in vitro to determine activity against hepatitis B virus (HBV).

[13] = system: Yellow Fever; assay: organism not typed; type: cell-based; conditions: YF, Vero, read-out: EC50

How did the EC50 ([1]; NR) turn out when `Nc1nccc2ncn([C@@H]3C=C(CO)[C@@H](O)[C@H]3O)c12` [Compound N7-3-DNPA] was run?
The EC50 was 34 µM.

And the EC50 ([1]; Visual)?
Its EC50 is 8 µM.

What about the EC50 ([2]; NR) of the same compound?
The EC50 was greater than 100 µM.

And the EC50 ([2]; Visual)?
Its EC50 is greater than 100 µM.

What about the EC50 ([3]; NR) of the same compound?
Its EC50 is greater than 32 µM.

And the EC50 ([3]; Visual)?
Its EC50 is greater than 32 µM.

And the EC50 ([4]; NR)?
Its EC50 is greater than 32 µM.

And the EC50 ([4]; Visual)?
The EC50 was greater than 32 µM.

What about the EC50 [5] of the same compound?
Its EC50 is greater than 300 µM.

What about the EC50 [6] of the same compound?
Its EC50 is greater than 100 µM.

And the EC50 ([7]; NR)?
Its EC50 is 85 µM.

And the EC50 ([7]; Visual)?
The EC50 was 52 µM.

What about the EC50 [8] of the same compound?
Its EC50 is 84.6 µM and > 100 µM.

And the EC50 ([9]; NR)?
The EC50 was 29 µM.

And the EC50 ([9]; Visual)?
Its EC50 is 32 µM.

And the EC50 [10]?
The EC50 was 273 µM.

And the EC50 ([11]; NR (Neutral Red))?
Its EC50 is greater than 100 µM.

And the EC50 ([11]; Visual)?
Its EC50 is greater than 100 µM.

And the EC50 [12]?
The EC50 was greater than 10 µM.

And the EC50 ([13]; NR)?
Its EC50 is greater than 100 µM.

What about the EC50 ([13]; Visual) of the same compound?
The EC50 was greater than 100 µM.
